We go through 11 compounds from ChEMBL document CHEMBL1201862, “PubChem BioAssay data set” (2004).

Common to all, as to assay: inhibition of tumour cell growth, NCI panel, 48 h
The subject of assay [1] is OVCAR-4.
In assay [2] the test system is BT-549.
For assay [3], the system named is NCI-H23.
Assay [4] has as its system MCF7.
The test system of assay [5] is NCI-H226.
The test system of assay [6] is 786-0.
In assay [7] the test system is HOP-62.
Assay [8] relates to UACC-257.
Assay [9] concerns SK-MEL-5.
The test system of assay [10] is DU-145.
Assay [11] has as its system MOLT-4.
In assay [12] the test system is OVCAR-3.
For assay [13], the system named is SK-MEL-2.
Assay [14] concerns A498.
The subject of assay [15] is T47D.
The subject of assay [16] is RPMI-8226.
Assay [17] concerns SNB-75.
Assay [18] concerns SF-295.
The test system of assay [19] is SK-OV-3.
The subject of assay [20] is DMS-273.

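Protocol summary: plate cells (96-well), add compound at 5 concentrations, incubate 48 h, interpolate endpoints linearly. GI50 = concentration required for 50% inhibition of growth.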 Activity calls are given as the source filed them. Cut-off read from the data, not from the text of the source: active = GI50 up to about 1.1 µM and inactive = higher. Bounds are passed on as bounds.

Regarding `CSc1ccc(NC(=O)Nc2cc(C)ccn2)cc1`, the GI50 in [1], in assay [2], in assay [3], in assay [4], in assay [5] and in assay [6] was > 100 µM (inactive) each time. In addition, the GI50 in assay [7], in assay [8], in assay [9], in assay [10], in assay [11] and in [12] was > 100 µM (inactive) each time. For the same compound, the GI50 in assay [13], in assay [14], in assay [15], in assay [16], in [17] and in assay [18] was > 100 µM (inactive) throughout. The GI50 in assay [19] is > 100 µM (inactive).

Turning to `C[C@]12CC[C@@H]3c4cc(OCC(F)(F)F)c(O)cc4C(=O)C[C@H]3[C@@H]1CC[C@@H]2O`, the GI50 in assay [1] is 27.2 µM (inactive); in assay [2] it was 6.34 µM (inactive); in [3], 12 µM (inactive); in assay [4], 5.07 µM (inactive); in assay [5] it was 22.5 µM (inactive); in assay [6] it was 10.8 µM (inactive). The GI50 in assay [7] was 12.6 µM (inactive); in [8], 12.2 µM (inactive); in assay [9] it was 5.87 µM (inactive); in assay [10], 17.3 µM (inactive); in assay [11], 3.5 µM (inactive); in [12], 2.88 µM (inactive). The GI50 in assay [13] is 11.4 µM (inactive); in [14] it was 7.93 µM (inactive); in assay [15] it was 29.1 µM (inactive); in assay [16], 3.2 µM (inactive); in [17], 5.36 µM (inactive); in [18], 3.6 µM (inactive). Moreover, in assay [19], the GI50 is 10.6 µM (inactive).

On to `COC(=O)C1=C(C(=O)OC)C2OC1C1C2C2(C)C(C)=C(C)C1(C)[S+]2[O-]` (centres undefined), for which the GI50 in [1] is 12.1 µM (inactive); in [2] it was 10.4 µM (inactive); in [3], 6.93 µM (inactive); in assay [4], 6.28 µM (inactive); in assay [5], 8.02 µM (inactive); in [6], 4.65 µM (inactive). The GI50 is 20.2 µM (inactive) in [7]; 12.4 µM (inactive) in assay [8]; 7.62 µM (inactive) in [9]; 6.62 µM (inactive) in [10]; 2.02 µM (inactive) in assay [11]; 9.02 µM (inactive) in [12]. Besides, the GI50 in assay [13] is 10.8 µM (inactive); in assay [14] it was 27.5 µM (inactive); in [15], 6.71 µM (inactive); in assay [16], 4.73 µM (inactive); in [17], 19.5 µM (inactive); in [18], 28.4 µM (inactive). Besides, in assay [19], the GI50 is 37.9 µM (inactive).

Turning to `O=[N+]([O-])c1ccc(/C=N/C2CCCCC2)cc1`, the GI50 in [1], in assay [3], in assay [5], in [6], in assay [7] and in assay [8] was > 100 µM (inactive) in each case. Further, the GI50 in [20], in assay [9], in [11], in assay [12], in assay [13] and in [14] was > 100 µM (inactive) in each case. Further, the GI50 in assay [17], in [18] and in assay [19] was > 100 µM (inactive) each time.

`COc1ccccc1/C=C/c1nc2ccccc2o1`: the GI50 in assay [1], in assay [2], in [3], in assay [4], in assay [5] and in assay [6] was > 10 µM (inactive) throughout. The GI50 in assay [7], in [8], in assay [9], in assay [10], in assay [11] and in [12] was > 10 µM (inactive) in each case. The GI50 in [13], in assay [14], in assay [15], in assay [16], in assay [17] and in assay [18] was > 10 µM (inactive) in each case. The GI50 in assay [19] is > 10 µM (inactive).

`O=C1c2ccccc2CN1c1ccc(OCCN2CCCCC2)cc1`: the GI50 in [1], in assay [2], in assay [3], in assay [4], in assay [5] and in assay [6] was > 10 µM (inactive) throughout. Further, the GI50 in [7], in [8], in assay [9], in assay [10], in assay [11] and in assay [12] was > 10 µM (inactive) each time. The GI50 in assay [13], in assay [14], in assay [15], in assay [16], in [17] and in [18] was > 10 µM (inactive) throughout. For the same compound, the GI50 in assay [19] was > 10 µM (inactive).

Consider `CC(C)(C)C1(COC(=O)c2ccc(N)cc2)COC1`, for which the GI50 is 32.7 µM (inactive) in assay [1]; 54.6 µM (inactive) in [2]; 66.7 µM (inactive) in assay [3]; 45 µM (inactive) in assay [4]; > 100 µM (inactive) in assay [5]; 73.3 µM (inactive) in [6]. Further, the GI50 in assay [7] was > 100 µM (inactive); in [8], 43.5 µM (inactive); in [9], 58.7 µM (inactive); in assay [10], > 100 µM (inactive); in assay [11], 30.5 µM (inactive); in assay [12], 26.3 µM (inactive). For the same compound, the GI50 was > 100 µM (inactive) in [13]; 87.3 µM (inactive) in assay [14]; 24.4 µM (inactive) in assay [15]; 58.9 µM (inactive) in assay [16]; 76.6 µM (inactive) in [17]; 29.1 µM (inactive) in [18]. Also, the GI50 in [19] was 58.1 µM (inactive).

Regarding `COC(OC)[C@@H]1OC[C@@H](O)[C@@H]1n1cnc2c(N)ncnc21`, the GI50 in assay [1], in assay [2], in assay [3], in assay [4], in assay [5] and in [6] was > 100 µM (inactive) throughout. The GI50 in [7], in assay [8], in assay [9], in assay [10], in assay [11] and in [12] was > 100 µM (inactive) in each case. Also, the GI50 in [13], in assay [14], in [15], in assay [16], in assay [17] and in [18] was > 100 µM (inactive) each time. Besides, in [19], the GI50 is > 100 µM (inactive).

On to `COc1cc(/C=N\O[Si](C)(C)C(C)(C)C)ccc1O[Si](C)(C)C(C)(C)C`, for which the GI50 in assay [1] was > 100 µM (inactive); in assay [6], 32.4 µM (inactive); in [7], > 100 µM (inactive); in assay [8], > 100 µM (inactive); in assay [20], > 100 µM (inactive); in assay [9], > 100 µM (inactive). In addition, the GI50 was 37.8 µM (inactive) in [11]; 22.3 µM (inactive) in assay [12]; 88.9 µM (inactive) in assay [13]; 56.6 µM (inactive) in assay [16]; > 100 µM (inactive) in assay [17]; 78.5 µM (inactive) in assay [18]. Further, in assay [19], the GI50 is > 100 µM (inactive).

`COc1cc2cc(C(=O)N3CC(CCl)c4c3cc([N+](C)(C)Cc3ccc([N+](=O)[O-])n3C)c3ccccc43)[nH]c2c(OC)c1OC` (centres undefined): the GI50 in assay [1] was 1.88 µM (inactive); in assay [2], 2.51 µM (inactive); in [3], 0.472 µM (active); in assay [4], 1.46 µM (inactive); in [5] it was 1.87 µM (inactive); in assay [6] it was 1.33 µM (inactive). In addition, the GI50 in assay [7] is 4.02 µM (inactive); in [8] it was 2.06 µM (inactive); in assay [9], 1.32 µM (inactive); in assay [10], 0.935 µM (active); in assay [11] it was 1.93 µM (inactive); in assay [12] it was 4.06 µM (inactive). The GI50 in assay [13] was 0.374 µM (active); in assay [14] it was 0.153 µM (active); in assay [15], 3.23 µM (inactive); in [16], 0.316 µM (active); in [17], 2.35 µM (inactive); in [18], 1.31 µM (inactive). Moreover, the GI50 in assay [19] is 3.81 µM (inactive).

In the case of `C[C@]12C=CC(=O)C=C1CC[C@@H]1[C@@H]2C(=O)C[C@@]2(C)[C@H]1CC[C@]2(O)C(=O)CO` [PREDNISONE], the GI50 in [1], in [2], in assay [3], in assay [4], in assay [5] and in assay [6] was > 100 µM (inactive) throughout. The GI50 in assay [7], in [8], in assay [9], in assay [10], in assay [11] and in [12] was > 100 µM (inactive) in each case. In addition, the GI50 in assay [13], in [14], in assay [15], in assay [16], in assay [17] and in [18] was > 100 µM (inactive) throughout. For the same compound, the GI50 in [19] is > 100 µM (inactive).
